Assay results as given in PubChem BioAssay (NCI).
Several values for one entry are separate records, joined by “and”; a condition that tells them apart may be missing. Equal entries are not always repeated.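 Growth conditions: 96-well plates. Treatment: test compound, 48 hours, 5 concentrations. Analysis: linear interpolation between bracketing concentrations; unreached endpoints set to highest concentration. Abbreviation: GI50, concentration required for 50% inhibition of growth. Definition used: TGI = concentration required for complete inhibition of growth.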

Legend:
Assay in all cases: NCI-60 cell line screen, 48 h; in the data active = GI50 below about 0.43 µM; inactive = the rest
[1] = tested on: UACC-62 melanoma
[2] = tested on: OVCAR-3 ovarian
[3] = tested on: OVCAR-4 ovarian
[4] = tested on: KM12 colon
[5] = tested on: A498 renal
[6] = tested on: HCT-15 colon
[7] = tested on: SNB-19 CNS
[8] = tested on: RPMI-8226 leukemia
[9] = tested on: SNB-75 CNS
[10] = tested on: EKVX NSCLC
[11] = tested on: HS 578T breast
[12] = tested on: TK-10 renal
[13] = tested on: K-562 leukemia
[14] = tested on: NCI-H226 lung
[15] = tested on: NCI/ADR-RES ovarian
[16] = tested on: SK-OV-3 ovarian
[17] = tested on: BT-549 breast
[18] = tested on: PC-3 prostate
[19] = tested on: MDA-N
[20] = tested on: HT29 colon
[21] = tested on: SK-MEL-5 melanoma
[22] = tested on: SK-MEL-28 melanoma
[23] = tested on: CAKI-1 renal
[24] = tested on: UO-31 renal
[25] = tested on: A549 NSCLC
[26] = tested on: OVCAR-8 ovarian
[27] = tested on: 786-0 renal
[28] = tested on: HL-60(TB) leukemia
[29] = tested on: SK-MEL-2 melanoma
[30] = tested on: RXF 393 renal
[31] = tested on: MDA-MB-435
[32] = tested on: T-47D breast
[33] = tested on: NCI-H460 lung
[34] = tested on: IGROV1 ovarian
[35] = tested on: OVCAR-5 ovarian
[36] = tested on: U251 CNS
[37] = tested on: NCI-H522 lung
[38] = tested on: COLO 205 colon
[39] = tested on: SW-620 colon
[40] = tested on: MOLT-4 leukemia
[41] = tested on: MALME-3M melanoma
[42] = tested on: NCI-H23 lung
[43] = tested on: SF-539 CNS
[44] = tested on: LOX IMVI melanoma
[45] = tested on: SF-268 CNS
[46] = tested on: MCF7 breast
[47] = tested on: HCT-116 colon
[48] = tested on: HOP-62 NSCLC
[49] = tested on: UACC-257 melanoma
[50] = tested on: M14 melanoma
[51] = tested on: SN12C renal
[52] = tested on: HCC-2998 colon
[53] = tested on: SR leukemia
[54] = tested on: HOP-92 NSCLC
[55] = tested on: SF-295 CNS
[56] = tested on: DU-145 prostate
[57] = tested on: MDA-MB-231 breast
[58] = tested on: ACHN renal
[59] = tested on: CCRF-CEM leukemia

CCc1c2c(nc3cc4c(c(N)c13)OCO4)-c1cc3c(c(=O)n1C2)COC(=O)[C@]3(O)CC
562 nM and 992 nM: TGI [54]
active: GI50 [1] < 1 nM | GI50 [2] 278 nM and 264 nM | GI50 [3] 130 nM and 350 nM | GI50 [4] 133 nM and 57.8 nM | GI50 [5] 7.58 nM and 33.4 nM | GI50 [6] 277 nM and 178 nM | GI50 [7] < 1 nM | GI50 [9] < 1 nM | GI50 [13] 1.35 nM | GI50 [14] < 1 nM | GI50 [16] < 1 nM | GI50 [17] < 1 nM | GI50 [18] 228 nM and 28.8 nM | GI50 [20] 14.5 nM | GI50 [21] < 1 nM | GI50 [23] < 1 nM | GI50 [24] 1.28 nM | GI50 [25] < 1 nM | GI50 [28] < 1 nM | GI50 [30] 18.8 nM and 43 nM | GI50 [31] 24.1 nM and 79.6 nM | GI50 [32] < 1 nM | GI50 [33] < 1 nM | GI50 [34] 161 nM and 128 nM | GI50 [36] < 1 nM | GI50 [40] < 1 nM | GI50 [41] 27.6 nM | GI50 [42] < 1 nM | GI50 [43] < 1 nM | GI50 [44] < 1 nM | GI50 [46] < 1 nM | GI50 [47] 174 nM | GI50 [48] < 1 nM | GI50 [49] 199 nM and 58.3 nM | GI50 [50] < 1 nM | GI50 [51] < 1 nM | GI50 [52] 31.7 nM and 43.1 nM | GI50 [54] 6.02 nM | GI50 [55] < 1 nM | GI50 [56] < 1 nM | GI50 [57] 24.6 nM and 48.8 nM | GI50 [58] < 1 nM
4390 nM: TGI [17]
134 nM and 190 nM: TGI [44]
412 nM: TGI [58]
5440 nM and 32400 nM: TGI [22]
48700 nM: TGI [10]
702 nM and 94.8 nM: GI50 [35]
405 nM and 236 nM: TGI [1]
1010 nM and 1470 nM: TGI [25]
24600 nM: TGI [47]
2010 nM and 1960 nM: TGI [31]
470 nM and 157 nM: TGI [33]
1660 nM: TGI [4]
153 nM: TGI [24]
14700 nM: TGI [26]
202 nM: TGI [14]
inactive: GI50 [10] 1930 nM and 962 nM | GI50 [12] 3030 nM and 483 nM | GI50 [38] 696 nM
56700 nM: TGI [15]
> 100000 nM: TGI [2] | TGI [3] | TGI [6] | TGI [11] | TGI [13] | TGI [18] | TGI [19] | TGI [20] | TGI [27] | TGI [39] | TGI [51] | TGI [53] | TGI [56] | TGI [57]
15200 nM: TGI [45]
409 nM: TGI [35]
6380 nM and 676 nM: TGI [52]
7.41 nM: TGI [23]
6250 nM: TGI [12]
4250 nM: TGI [41]
38 nM: TGI [43]
29.8 nM: TGI [46]
2580 nM and 2470 nM: TGI [49]
32.6 nM and 174 nM: TGI [36]
1030 nM: TGI [50]
1360 nM and 663 nM: TGI [37]
440 nM and 382 nM: TGI [30]
252 nM and 459 nM: TGI [5]
22.2 nM and 101 nM: TGI [21]
183 nM: TGI [7]
473 nM and 249 nM: GI50 [22]
317 nM and 2770 nM: TGI [8]
42.4 nM: TGI [29]

C#CCSc1n[nH]c(-c2ccco2)n1
32000 nM: TGI [24]
> 100000 nM: TGI [1] | TGI [2] | TGI [3] | TGI [4] | TGI [5] | TGI [6] | TGI [7] | TGI [8] | TGI [9] | TGI [10] | TGI [11] | TGI [12] | TGI [13] | TGI [14] | TGI [15] | TGI [16] | TGI [17] | TGI [18] | TGI [19] | TGI [20] | TGI [21] | TGI [22] | TGI [23] | TGI [25] | TGI [26] | TGI [27] | TGI [28] | TGI [29] | TGI [30] | TGI [31] | TGI [32] | TGI [33] | TGI [34] | TGI [35] | TGI [36] | TGI [37] | TGI [38] | TGI [39] | TGI [40] | TGI [41] | TGI [42] | TGI [43] | TGI [44] | TGI [45] | TGI [46] | TGI [47] | TGI [48] | TGI [49] | TGI [50] | TGI [51] | TGI [52] | TGI [53] | TGI [54] | TGI [55] | TGI [56] | TGI [57] | TGI [58]

O=c1[nH]cc(/C=N\Nc2ccccc2)c(=O)[nH]1
> 100000 nM: TGI [1] | TGI [2] | TGI [3] | TGI [4] | TGI [5] | TGI [6] | TGI [7] | TGI [8] | TGI [9] | TGI [10] | TGI [11] | TGI [12] | TGI [13] | TGI [14] | TGI [15] | TGI [16] | TGI [17] | TGI [18] | TGI [19] | TGI [20] | TGI [21] | TGI [22] | TGI [23] | TGI [24] | TGI [25] | TGI [26] | TGI [27] | TGI [28] | TGI [29] | TGI [30] | TGI [31] | TGI [32] | TGI [33] | TGI [34] | TGI [35] | TGI [36] | TGI [37] | TGI [59] | TGI [38] | TGI [39] | TGI [41] | TGI [42] | TGI [43] | TGI [44] | TGI [45] | TGI [46] | TGI [47] | TGI [49] | TGI [50] | TGI [51] | TGI [52] | TGI [53] | TGI [54] | TGI [55] | TGI [56] | TGI [57] | TGI [58]
